Measurements taken from PubChem BioAssay (NCI).
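Results reflect a 48-hour exposure of cells in 96-well plates to compound at five concentrations. TGI is the concentration that stops growth completely.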

Assays:
Test in all cases: DTP human tumour cell line panel, 48 h
A549 NSCLC = test system: A549 NSCLC
DU-145 prostate = test system: DU-145 prostate
HCC-2998 colon = test system: HCC-2998 colon
HCT-116 colon = test system: HCT-116 colon
HS 578T breast = test system: HS 578T breast
HT29 colon = test system: HT29 colon
M14 melanoma = test system: M14 melanoma
NCI-H226 lung = test system: NCI-H226 lung
NCI-H460 lung = test system: NCI-H460 lung
NCI/ADR-RES ovarian = test system: NCI/ADR-RES ovarian
OVCAR-5 ovarian = test system: OVCAR-5 ovarian
SNB-19 CNS = test system: SNB-19 CNS
SR leukemia = test system: SR leukemia
T-47D breast = test system: T-47D breast
UACC-62 melanoma = test system: UACC-62 melanoma
UO-31 renal = test system: UO-31 renal

Structure (SMILES)	TGI (A549 NSCLC)	TGI (DU-145 prostate)	TGI (HCC-2998 colon)	TGI (HCT-116 colon)	TGI (HS 578T breast)	TGI (HT29 colon)	TGI (M14 melanoma)	TGI (NCI-H226 lung)	TGI (NCI-H460 lung)	TGI (NCI/ADR-RES ovarian)	TGI (OVCAR-5 ovarian)	TGI (SNB-19 CNS)	TGI (SR leukemia)	TGI (T-47D breast)	TGI (UACC-62 melanoma)	TGI (UO-31 renal)
NC(=O)N(O)c1cccc(Br)c1	> 100 µM	> 100 µM	> 100 µM	> 100 µM	> 100 µM	> 100 µM	> 100 µM	> 100 µM	> 100 µM	> 100 µM	> 100 µM	> 100 µM	> 100 µM	> 100 µM	> 100 µM	> 100 µM
CCCCCCCSCC(O)COC(c1ccccc1)(c1ccccc1)c1ccccc1 (configuration not stated)	> 100 µM	> 100 µM	> 100 µM	> 100 µM	50.1 µM	68.5 µM	> 100 µM	85 µM	> 100 µM	> 100 µM	> 100 µM	> 100 µM	85.4 µM	> 100 µM	> 100 µM	27.8 µM
CC/C(Cl)=N\OC(=O)Nc1ccc(C#N)cc1	35.7 µM	29.6 µM	30.1 µM	28.1 µM	57.8 µM	36.9 µM	24.8 µM	30.9 µM	36.2 µM	18.3 µM	29.5 µM	> 100 µM	22.7 µM	30.7 µM	28.4 µM	31 µM
CN1C[C@@H]2CCCN2P1Oc1cccc2cccnc12 (some centres not stated)	> 100 µM	> 100 µM	> 100 µM	89 µM	68.1 µM	> 100 µM	> 100 µM	> 100 µM	> 100 µM	62.3 µM	> 100 µM	> 100 µM	> 100 µM	> 100 µM	> 100 µM	> 100 µM
CSc1c(C#N)c2n(c3ccccc3[n+]2C)c2ncccc12	77 µM	47.2 µM	> 100 µM	> 100 µM	> 100 µM	> 100 µM	52.6 µM	49.9 µM	> 100 µM	85.5 µM	84.6 µM	> 100 µM	> 100 µM	80 µM	38.9 µM	50.1 µM
Cc1nc2c(-c3ccccc3)[nH]c(C)c2c(=O)o1	> 100 µM	> 100 µM	> 100 µM	> 100 µM	> 100 µM	> 100 µM	> 100 µM	> 100 µM	> 100 µM	> 100 µM	> 100 µM	> 100 µM	> 100 µM	> 100 µM	> 100 µM	> 100 µM
O=C(/C=C/c1ccc(O)c(O)c1)OCCOC(=O)/C=C/c1ccc(O)c(O)c1	> 100 µM	79.8 µM	> 100 µM	46.7 µM	> 100 µM	43.4 µM	28.5 µM	96.3 µM	> 100 µM	> 100 µM	65.8 µM	> 100 µM	58.9 µM	51.2 µM	35.1 µM	47.5 µM
Clc1nc2c(-c3cccs3)ncnc2n1Cc1ccccc1	> 100 µM	6.18 µM	9.84 µM	> 100 µM	87.8 µM	> 100 µM	> 100 µM	> 100 µM	> 83.2 µM	> 100 µM	> 100 µM	> 78.3 µM	> 100 µM	> 91.5 µM	> 100 µM	1.09 µM
CCOC(=O)c1nc2cc(C(F)(F)F)ccc2nc1Nc1ccc(Cl)c(Cl)c1	> 100 µM	> 100 µM	> 100 µM	> 100 µM	> 100 µM	> 100 µM	> 100 µM	> 100 µM	> 100 µM	> 100 µM	> 100 µM	> 100 µM	> 100 µM	> 100 µM	> 100 µM	> 100 µM
CO[C@H]1O[C@@H]2CO[C@@H](c3ccccc3)O[C@H]2C[C@]12CCC/C=C\CO2	> 75 µM	> 75 µM	54.5 µM	23.5 µM	40 µM	40.5 µM	41.2 µM	50.9 µM	> 75 µM	73.6 µM	> 75 µM	> 75 µM	31.8 µM	59.6 µM	> 75 µM	25.2 µM
N#Cc1c(NC(=S)NCc2ccccc2)sc2c1CCN(N1CCc3c(sc(NC(=S)NCc4ccccc4)c3C#N)C1)C2	> 100 µM	> 100 µM	> 100 µM	> 100 µM	> 100 µM	> 100 µM	> 100 µM	> 100 µM	> 100 µM	> 100 µM	> 100 µM	> 100 µM	> 100 µM	> 100 µM	> 100 µM	> 100 µM
O=[N+]([O-])C1(C2([N+](=O)[O-])CCCC2)CCCC1	> 100 µM	> 100 µM	> 100 µM	> 100 µM	> 100 µM	> 100 µM	> 100 µM	> 100 µM	> 100 µM	> 100 µM	> 100 µM	> 100 µM	> 100 µM	> 100 µM	> 100 µM	> 100 µM
